Laboratory results published in patent publication US20220072138A1, “NRTI THERAPIES” (THE UNIVERSITY OF LIVERPOOL, priority 2018, published 2022).

Tests used:
[1] = system: HIV; conditions: cited from earlier work
[2] = primate; cited from earlier work
[3] = system: HIV; conditions: in vivo; cited from earlier work
[4] = Stability of carbamate 5 under model polymerization conditions; type: physicochemical; conditions: CH2Cl2, 0.5 eq DMAP, 2 eq pyridine, RT
Procedure: Stability of compound 5 under polymerization conditions. Carbamate 5 is shown to release TAF in a time bond manner. To determine the stability of carbamate moiety under polymerization conditions and evaluate the utility of TAF phenyl carbamates, carbamate 5 was tested for its stability under model polymerization conditions. A solution of carbamate 5 in methylene chloride (CH2Cl2) was stirred with 0.5 molar equivalent of 4-Dimethylaminopyridine and 2 molar equivalents of pyridine at room temperature (RT, 22-25° C.) for 24 h. The portion of the reaction mixture was removed and dissolved in DMSO followed by analysis of the reaction mixture using HPLC to determine amount of TAF formed and carbamate 5 left after 24 h. Standard curve was used to determine that 20.5% TAF was formed after 24 hours, leaving 79.5% carbamate 5 intact (FIG. 23).

[5] = Solubility of carbamate 5 in phosphate buffer; type: physicochemical; conditions: 100 mM phosphate buffer pH 7.4 with 5% DMSO v/v
Procedure: Carbamate 5 was synthesized according to the process described above. Purity. The compound was dissolved in DMSO (100 μM) and injected on HPLC to determine purity of 95.1% at 269-270 nm. Standard Curve. Serial dilution of carbamate 5 in DMSO (100 μM to 0.78 μM) was done and each sample injected on HPLC. The UV absorbance at different concentrations was used to obtain a linear standard curve. The standard curve was used in determining solubility in buffers, kinetics of degradation at pH 7.4 and stability under polymerization conditions. Solubility. Carbamate 5 in DMSO was mixed with 100 mM phosphate buffer pH7.4 with varying amounts of DMSO (0.1% v/v, 0.5% v/v, 1% v/v and 5% v/v). The mixtures were centrifuged at 14000 rpm for 5 min and the supernatant injected on HPLC.

[6] = in vitro; type: in vitro ADME; conditions: both sexes, human, plasma, pH 7.4
Procedure: (§1) After incubation at 37° C., aliquots were taken at each time point and quenched in 2 volumes of Ice-cold methanol. The quenched aliquots were then centrifuged at 14000 rpm for 5 min. The supernatant was diluted 10-fold Into phosphate buffer (0.1 M, pH 7.4) and injected onto the HPLC for analysis (5% to 100% B over 8 minutes at a flow rate of 1 mL mi; solvent A: 50 mM Et3NHOAc, pH 8; solvent B: acetonitrile) and read spectrophotometrically monitoring a decrease in substrate peak area at 305 nm (23) or 280 nm (25) over time. Quantification of 23 at each time point to determine rate was achieved by converting peak areas to nmols using a standard curve (23). Quantification of 25 at each time point to determine rate was achieved by calculating nmols based on the percent of total peak area at 250 nm (25+26, 200 nmol total). Hydrolysis of 25 yields two molar equivalents of 1, determined by quantifying 1 using a standard curve following full conversion of 25 to 1.
Human Plasma (Bioreclamation IVT). Solution used for in vitro metabolism is a 50/50 mix of Human Plasma (Male) (Bioreclamation IVT, Cat #[…]2-M) and Human Plasma (Female) (Bioreclamation IVT, Cat #[…]2-F)

[7] = In vitro metabolism of FTC POP fragments in human liver S9; type: in vitro ADME; conditions: human liver S9, 1 mM, 37° C.
Procedure: as §1
Human Liver S9 Fraction-Pool of 50 (Sekuisi Xenotech, Product #HO610.59; 20 mg/mL stock)

[8] = In vitro metabolism of FTC POP fragments in human skeletal muscle S9; type: in vitro ADME; conditions: human skeletal muscle S9, 1 mM, 37° C.
Procedure: as §1
Human S9-Skeletal Muscle (Bioreclamation IVT). Solution used for in vitro metabolism is a 50/50 mix of Male Human S9 (Bioreclamation IVT, Cat #S03517) and Female Human S9 (Bioreclamation IVT, Cat #S03518). Protein concentrations (mg/mL) were determined by averaging the concentrations provided by Bioreclamation.

For `C#C[C@]1(CO)O[C@@H](n2cnc3c(N)nc(F)nc32)C[C@@H]1O` [EFdA, 4′-ethynyl-2-fluoro-2′-deoxyadenosine], the “predicted in vitro potency relative to TFV” value ([1]; higher than TFV) is given as about 8400 fold, the IC50 ([1]; read-out: in vitro IC50) is given as about 0.2 nM and the “plasma t1/2” value [2] is given as about 7 h. The “viral suppression maintained after the last dose” value [3] was at least 7 days.
In the case of “N-(2,4,6-trimethylphenyl)-tenofovir alafenamide carbamate [carbamate 5]”, the “TAF formed after 24 hours” value [4] is reported as 20.5%, the “carbamate 5 left intact after 24 hours” value [4] is reported as 79.5% and the “solubility (achievable concentration)” value [5] is reported as 111.2 µM.
For `Nc1nc(=O)n([C@@H]2CS[C@H](COC(=O)OCCOCCOCCOC(=O)OC[C@@H]3O[C@H](n4cc(F)c(N)nc4=O)CS3)O2)cc1F` [Polymer 25, bis(((2R,5S)-5-(4-amino-5-fluoro-2-oxopyrimidin-1(2H)-yl)-1,3-oxathiolan-2-yl)methyl) ((ethane-1,2-diylbis(oxy))bis(ethane-2,1-diyl)) bis(carbonate)], the half-life at 1 mM [6] was 0.45 ± 0.02 h, the “Liver S9 initial rate (rate of disappearance of starting material)” value [7] was 1014 ± 86 nmol/h/mg and the “Muscle S9 initial rate (rate of disappearance of starting material)” value [8] was 3.7 ± 0.4 nmol/h/mg.
For `O=C(Nc1nc(=O)n([C@@H]2CS[C@H](CO)O2)cc1F)OCCOCCOCCOC(=O)Nc1nc(=O)n([C@@H]2CS[C@H](CO)O2)cc1F` [Polymer 23, (ethane-1,2-diylbis(oxy))bis(ethane-2,1-diyl) bis((5-fluoro-1-((2R,5S)-2-(hydroxymethyl)-1,3-oxathiolan-5-yl)-2-oxo-1,2-dihydropyrimidin-4-yl)carbamate)], the half-life at 1 mM [6] was 13 ± 1.5 h, the “Liver S9 initial rate (rate of disappearance of starting material)” value [7] was 0.6 ± 0.06 nmol/h/mg and the “Muscle S9 initial rate (rate of disappearance of starting material)” value [8] was “*Non-linear trend”.
